Measurements reported in EP3586875A1, “STABILIZATION OF POLYSORBATE” (Lonza Limited, priority 2018, dated 2020).

Columns and labels:
Assay type in all cases: physicochemical
[1] = LC-UV-MS quantification of 4HNE in PS80 solutions after storage; details: 10% PS80; Air; 100-fold diluted; RL 50 micro M
Method: Studies were performed to investigate oxidative degradation of PS20 and PS80 in aqueous solutions containing the antioxidants BHT or BHA. The following solutions were tested: • 1) polysorbate solutions of 10% (w/v) ± 0.02% (w/v) of the respective antioxidant, • 2) polysorbate solutions of 0.1% (w/v) ± 0.0002% (w/v) of the respective antioxidant. For solution 1), stabilized (containing the antioxidant BHT or BHA at a concentration of 0.2% (w/w)) and unstabilized (not containing any antioxidant) neat PS was diluted to a concentration of 10% (w/v) by adding 5 g of PS into a 50 mL volumetric flask and filling up to the 50 mL mark with H2O. The solution was stirred with a magnetic stirrer for about 20 minutes to ensure complete dissolution of PS. 5 ml of each solution was aliquoted into 6R vials. Each vial was closed with a stopper and a cap. […]
LC-UV-MS was used to quantify 4HNE levels in solutions of 10% PS80 (w/v) ± 0.02% (w/v) of the antioxidants BHT or BHA. […]
Quantification of 4HNE was achieved by integration of the LC-UV signals (lambda = 220 nm) and using a calibration curve obtained from the integrated LC-UV signals (lambda = 220 nm) of the external reference 4HNE. As a reference standard aqueous 4HNE solutions with concentrations between 0.05 ppm and 1 ppm were prepared and directly analyzed by LC-UV-MS. […]

[2] = HPLC-FMA (fluorescence micelle assay), polysorbate concentration after storage; details: diluted to target 0.04% PS (w/v)
Method: (§1) Studies were performed to investigate oxidative degradation of PS20 and PS80 in aqueous solutions containing the antioxidants BHT or BHA. The following solutions were tested: • 1) polysorbate solutions of 10% (w/v) ± 0.02% (w/v) of the respective antioxidant, • 2) polysorbate solutions of 0.1% (w/v) ± 0.0002% (w/v) of the respective antioxidant. For solution 1), stabilized (containing the antioxidant BHT or BHA at a concentration of 0.2% (w/w)) and unstabilized (not containing any antioxidant) neat PS was diluted to a concentration of 10% (w/v) by adding 5 g of PS into a 50 mL volumetric flask and filling up to the 50 mL mark with H2O. The solution was stirred with a magnetic stirrer for about 20 minutes to ensure complete dissolution of PS. 5 ml of each solution was aliquoted into 6R vials. Each vial was closed with a stopper and a cap.
For solution 2), 50 micro L of the 10% (w/v) PS solutions were transferred into 6R vials and filled up with 4.95 mL H2O to a final concentration of 0.1% (w/v) PS.
(§2) Throughout the experiments, the solutions were subjected to three different conditions as follows: "T0": stored at -20°C for 7 weeks, "H2O2": stored at 25°C and 60% humidity for 7 weeks in the presence of hydrogen peroxide (H2O2) at a concentration of 10% (w/w) based on the molar ratio of used antioxidant. "Air": stored at 40°C and 75% humidity for 7 weeks and exposed to air (needle in vial stopper for free air exchange during incubation).
HPLC FMA was used to measure the concentration of polysorbate in solutions of 10% PS20 ± 0.02% (w/v) of the antioxidants BHT or BHA, solutions of 10% PS80 (w/v) ± 0.02% (w/v) of the antioxidants BHT or BHA, and solutions of 0.1% PS80 (w/v) ± 0.0002% (w/v) of the antioxidants BHT or BHA. Samples were diluted to the target concentration of 0.04% PS (w/v) prior to analysis.
The following HPLC fluorescence detector conditions were applied: Column: knitted reaction coil L x I.D. 20mx 0.25mm, volume 1.0mL SUPELCO, ambient temperature; injection volume: 10 micro L; flow: 1.5 mL/min; isocratic 2min (A: 0.15M sodium chloride, 0.05 M L-histidine, pH = 6, 5%(v/v) acetonitrile, 5 micro M N-phenyl-1-naphtylamine (NPN), 15 ppm Brij® 35); FLD: lambda excitation = 350 nm, lambda emission = 420 nm, data mode: emission.
Quantification of each sample type was performed by using 10% T0 samples for preparation of an external calibration curve from 0.02% to 0.06% PS.
Empower 2 was used as software for quantification.
The assay is based on the uptake of the fluorescent dye NPN by surfactant micelles using flow injection analysis and subsequent fluorescence detection. The dye is present in the mobile phase. In the lipophilic surrounding in the inside of the micelles the fluorescent signal is 10-fold higher than in aqueous mobile phase. Therefore, the concentration of polysorbate can be measured according to the formation of micelles and the uptake of the dye by the subsequent increase of the signal intensity.

[3] = LC-UV-MS quantification of free fatty acids in polysorbate solutions after storage
Method: as §1, §2
LC-UV-MS was used to quantify FFA levels in solutions of 10% PS (w/v) ± 0.02% (w/v) of the antioxidants BHT or BHA. The FFAs lauric acid, myristic acid and palmitic acid were quantified for PS20-containing solutions and palmitic acid, stearic acid and oleic acid were quantified for PS80-containing solutions. The RL for all FFAs was 50000 ppb.
LC-UV-MS conditions were applied as in Example 2. Quantification of the FFAs was achieved by integration of the LC-MS signals at their corresponding ion trace (lauric acid = m/z 199.3; myristic acid = m/z 227.3; palmitic acid = m/z 255.3; stearic acid = m/z 283.3; oleic acid = m/z 281.3) in negative mode and using a calibration curve obtained from the integrated LC-MS signals of each corresponding ion trace of the external reference of lauric acid, myrisitic acid, palmitic acid, stearic acid and oleic acid. FFA reference standards in aqueous solutions at concentrations from 0.5 ppm to 5 ppm were prepared. All reference standard solutions were directly analyzed by LC-UV-MS.

[4] = HS-GC-MS quantification of headspace hexanal in PS80 solutions after storage; details: 10% PS80, RL of 100 ppb
Method: as §1, §2
GC-MS was used to quantify headspace hexanal levels for solutions of 10% PS (w/v) ± 0.02% (w/v) of the antioxidants BHT or BHA.
The following HS-GC-MS conditions were applied: Headspace oven: 10 min at 80°C, Column: Agilent HP-5MS, 30 m x 250 micro M x 0.25 micro M; GC oven: 3 min at 35°C, then 20°C/min to 320°C, then 10 min at 320°C; column flow: 1.3 mL/min; MS: Full scan, m/z = 35 - 300. As a reference standard aqueous toluene solutions with concentrations between 0.1 ppm and 1 ppm in 10 mL H2O were prepared and directly analyzed by HS-GC-MS.
1 mL of each sample was transferred into a headspace vial with a volume of 20 mL, closed, and analyzed directly.
Quantification was achieved by integration of the HS-GC-MS signals (TIC) and using a calibration curve obtained from the integrated HS-GC-MS signals (TIC) of the external reference toluene.
Tentative identification of degradants was performed by comparing the mass spectrum of each GC-MS signal against the NIST14 standard reference database.
The degradant most consistently identified by HS-GC-MS to show a value above the RL of 100 ppb was hexanal.

Row | Structure (SMILES) | 4HNE measured [1] [micro M] | X= calculated concentration in % of the average of 2 injections (polysorbate) ([2]; PS20 - 10%, Air) [%] | X= calculated concentration in % of the average of 2 injections (polysorbate) ([2]; PS80 - 0.1%, H2O2, RL 0.02%) [%] | X= calculated concentration in % of the average of 2 injections (polysorbate) ([2]; PS80 - 10%, Air, RL 0.02%) [%] | X = calculated fatty acid concentration in ppb, Lauric acid ([3]; 7 weeks, 0.02 % (w/v)) | X = calculated fatty acid concentration in ppb, Myristic acid ([3]; 7 weeks, 0.02 % (w/v)) | X = calculated fatty acid concentration in ppb, Oleic acid ([3]; 7 weeks, 0.02 % (w/v)) | X = calculated fatty acid concentration in ppb, Stearic acid ([3]; 7 weeks, 0.02 % (w/v)) | hexanal (headspace) ([4]; Air) | hexanal (headspace) ([4]; H2O2) | hexanal (headspace) ([4]; T0) | X = calculated fatty acid concentration in ppb, Lauric acid ([3]; PS20 - 10%, Air, RL 50000ppb) | X = calculated fatty acid concentration in ppb, Myristic acid ([3]; PS20 - 10%, Air, RL 50000ppb) | X = calculated fatty acid concentration in ppb, Oleic acid ([3]; PS80 - 10%, Air, RL 50000ppb) | X = calculated fatty acid concentration in ppb, Stearic acid ([3]; PS80 - 10%, Air, RL 50000ppb)
1 | Cc1cc(C(C)(C)C)c(O)c(C(C)(C)C)c1 [BHT, butylated hydroxytoluene] | < 50 | ~0.04 | ~0.04 | ~0.04 | below 200000 ppb | around 50000 ppb | around 100000 ppb | around 60000 ppb | no hexanal could be detected | no hexanal could be detected | no hexanal could be detected | – | – | – | –
2 | COc1ccc(O)c(C(C)(C)C)c1 [BHA, butylated hydroxyanisole] | < 50 | ~0.04 | ~0.04 | ~0.04 | – | – | – | – | no hexanal could be detected | no hexanal could be detected | no hexanal could be detected | below 200000 ppb | around 50000 ppb | around 200000 ppb | around 60000 ppb
